Test results as given in the supplement of paper PMC11061612.

Experiments:
Experiment in all cases: combination Emax (second highest fraction inhibited in the dose matrix, 72 h); higher = more inhibition; extreme values may be limits of the assay
IST-MES1 (Mesothelioma) = test system: IST-MES1 (Mesothelioma)
Summary of the method: (§1)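 After 24 hours at 37°C and 5% CO2 in 1536-well plates, cells in DMEM/F12 or RPMI plus 10% FBS received two-drug dose matrices for 72 hours. Viability came from CellTiter-Glo 2.0 luminescence and was scaled as inhibition, anchored at 0 by vehicle wells and at 1 by blank wells. Combination Emax is taken as the second-highest inhibition in the matrix, and Bliss excess as the observed combination effect less EA + EB − EA·EB, with EA and EB the single-agent effects.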

[1] = test system: TE-8 (Esophageal Squamous Cell Carcinoma)
Summary of the method: as §1

[2] = test system: HEC-1 (Endometrial Carcinoma)
Summary of the method: as §1

[3] = test system: OVMIU (Ovarian Carcinoma)
Summary of the method: as §1

[4] = test system: L-1236 (Hodgkin's Lymphoma)
Summary of the method: as §1

[5] = test system: MFE-280 (Endometrial Carcinoma)
Summary of the method: as §1

[6] = test system: VAL (B-Cell Non-Hodgkin's Lymphoma)
Summary of the method: as §1

[7] = test system: NCI-H446 (Small Cell Lung Carcinoma)
Summary of the method: as §1

[8] = test system: PANC-03-27 (Pancreatic Carcinoma)
Summary of the method: as §1

LN-229 (Glioblastoma) = test system: LN-229 (Glioblastoma)
Summary of the method: as §1

GB-1 (Glioblastoma) = test system: GB-1 (Glioblastoma)
Summary of the method: as §1

SF539 (Glioblastoma) = test system: SF539 (Glioblastoma)
Summary of the method: as §1

SF268 (Low Grade Glioma) = test system: SF268 (Low Grade Glioma)
Summary of the method: as §1

[9] = test system: LXF-289 (Lung Adenocarcinoma)
Summary of the method: as §1

[10] = test system: CAL-62 (Thyroid Gland Carcinoma)
Summary of the method: as §1

[11] = test system: LK-2 (Squamous Cell Lung Carcinoma)
Summary of the method: as §1

[12] = test system: KE-37 (T-Lymphoblastic Leukemia)
Summary of the method: as §1

[13] = test system: OPM-2 (Plasma Cell Myeloma)
Summary of the method: as §1

[14] = test system: GP5d (Colorectal Carcinoma)
Summary of the method: as §1

[15] = test system: SK-PN-DW (Other Solid Carcinomas)
Summary of the method: as §1

| SMILES | combination Emax (IST-MES1 (Mesothelioma)) | combination Emax [1] | combination Emax [2] | combination Emax [3] | combination Emax [4] | combination Emax [5] | combination Emax [6] | combination Emax [7] | combination Emax [8] | combination Emax (LN-229 (Glioblastoma)) | combination Emax (GB-1 (Glioblastoma)) | combination Emax (SF539 (Glioblastoma)) | combination Emax (SF268 (Low Grade Glioma)) | combination Emax [9] | combination Emax [10] | combination Emax [11] | combination Emax [12] | combination Emax [13] | combination Emax [14] | combination Emax [15] |
| --- | --- | --- | --- | --- | --- | --- | --- | --- | --- | --- | --- | --- | --- | --- | --- | --- | --- | --- | --- | --- |
| C[C@@H](c1ccc2nccn2c1)n1nnc2ncc(-c3cnn(C)c3)nc21 [Savolitinib] + CC1(C)CCC(CN2CCN(c3ccc(C(=O)NS(=O)(=O)c4ccc(NCC5CCOCC5)c([N+](=O)[O-])c4)c(Oc4cnc5[nH]ccc5c4)c3)CC2)=C(c2ccc(Cl)cc2)C1 [Venetoclax] (first compound max 1 µM, 7x7, partner max 1 µM) | 0.198 | 0.229 | 0.133 | 0.284 | 0.416 | 0.186 | 0.963 | 0.277 | 0.167 | 0.0841 | 0.109 | 0.161 | 0.104 | 0.16 | 0.142 | 0.165 | 0.113 | 0.246 | 0.141 | 0.221 |
| C[C@@H](c1ccc2nccn2c1)n1nnc2ncc(-c3cnn(C)c3)nc21 [Savolitinib] + Cc1c2c(nn1C)CSCc1cc(n(C)n1)CSc1cc(c3ccccc3c1)OCCCc1c(C(=O)O)n(C)c3c-2c(Cl)ccc13 [AZD5991] (first compound max 1 µM, 7x7, partner max 1 µM) | 0.189 | 0.323 | 0.107 | 0.114 | 0.668 | 0.116 | 0.564 | 0.597 | 0.0558 | 0.221 | 0.117 | 0.21 | 0.167 | 0.306 | 0.131 | 0.202 | 0.159 | 1 | 0.861 | 0.766 |
| Cn1cnc2c(F)c(Nc3ccc(Br)cc3Cl)c(C(=O)NOCCO)cc21 [Selumetinib] + C=CCn1c(=O)c2cnc(Nc3ccc(N4CCN(C)CC4)cc3)nc2n1-c1cccc(C(C)(C)O)n1 [AZD1775] (first compound max 10 µM, partner max 1 µM) | 0.189 | 0.57 | 0.157 | 0.498 | 0.956 | 0.212 | 0.732 | 0.925 | 0.815 | 0.316 | 0.321 | 0.972 | 0.473 | 0.514 | 0.607 | 0.931 | 0.947 | 0.834 | 0.888 | 0.798 |
| Cn1cnc2c(F)c(Nc3ccc(Br)cc3Cl)c(C(=O)NOCCO)cc21 [Selumetinib] + CC(C)n1c(=O)n(C)c2cnc3cc(F)c(-c4ccc(OCCCN5CCCCC5)nc4)cc3c21 [AZD1390] (first compound max 10 µM, 7x7, partner max 0.3 µM) | 0.183 | 0.546 | 0.0424 | 0.402 | 0.301 | 0.17 | 0.0806 | 0.262 | 0.42 | 0.153 | 0.0241 | 0.359 | 0.139 | 0.146 | 0.219 | 0.49 | 0.303 | 0.192 | 0.683 | 0.139 |
| Cn1cnc2c(F)c(Nc3ccc(Br)cc3Cl)c(C(=O)NOCCO)cc21 [Selumetinib] + CCN(CCO)CCCOc1ccc2c(Nc3cc(CC(=O)Nc4cccc(F)c4)[nH]n3)ncnc2c1 [AZD2811] (first compound max 10 µM, 7x7, partner max 1 µM) | 0.269 | 0.347 | 0.0639 | 0.407 | 0.289 | 0.161 | 0.678 | 0.91 | 0.534 | 0.286 | 0.117 | 0.501 | 0.275 | 0.514 | 0.291 | 0.795 | 1 | 0.356 | 0.842 | 0.572 |
| Cn1cnc2c(F)c(Nc3ccc(Br)cc3Cl)c(C(=O)NOCCO)cc21 [Selumetinib] + C[C@@H]1COCCN1C2=NC(=NC(=C2)C3(CC3)[S@](=N)(=O)C)C4=C5C=CNC5=NC=C4 [AZD6738] (first compound max 10 µM, 7x7, partner max 10 µM) | 0.269 | 0.495 | 0.298 | 0.476 | 0.839 | 0.151 | 0.746 | 0.85 | 0.599 | 0.552 | 0.337 | 0.855 | 0.49 | 0.591 | 0.672 | 0.39 | 0.959 | 0.847 | 0.861 | 0.915 |
| CC(=O)Nc1cccc(-n2c(=O)n(C3CC3)c(=O)c3c(Nc4ccc(I)cc4F)n(C)c(=O)c(C)c32)c1 [Trametinib] + Cc1nc(-c2cn3c(n2)-c2ccc(-c4cnn(C(C)(C)C(N)=O)c4)cc2OCC3)n(C(C)C)n1 [Taselisib] (first compound max 1 µM, 7x7, partner max 10 µM) | 0.434 | 0.782 | 0.346 | 0.973 | 0.513 | 0.939 | 0.424 | 0.94 | 0.982 | 0.803 | 0.845 | 0.989 | 0.484 | 0.963 | 0.765 | 0.608 | 0.676 | 1 | 0.907 | 0.695 |
